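All cell lines were grown in 96-well plates and treated with compound for 48 hours. The concentration for full growth arrest is given as TGI.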
What was measured:
Assay in all cases: growth of human tumour cells (NCI), 48 h
[1] = tested on: 786-0 renal
[2] = tested on: A498 renal
[3] = tested on: ACHN renal
[4] = tested on: BT-549 breast
[5] = tested on: CAKI-1 renal
[6] = tested on: CCRF-CEM leukemia
[7] = tested on: COLO 205 colon
[8] = tested on: DU-145 prostate
[9] = tested on: EKVX NSCLC
[10] = tested on: HCC-2998 colon
[11] = tested on: HCT-116 colon
[12] = tested on: HCT-15 colon
[13] = tested on: HL-60(TB) leukemia
[14] = tested on: HOP-62 NSCLC
[15] = tested on: HOP-92 NSCLC
[16] = tested on: HS 578T breast
[17] = tested on: HT29 colon
[18] = tested on: IGROV1 ovarian
[19] = tested on: K-562 leukemia
[20] = tested on: KM12 colon
[21] = tested on: LOX IMVI melanoma
[22] = tested on: M14 melanoma
[23] = tested on: MCF7 breast
[24] = tested on: MDA-MB-231 breast
[25] = tested on: MDA-MB-435
[26] = tested on: MOLT-4 leukemia
[27] = tested on: NCI-H226 lung
[28] = tested on: NCI-H23 lung
[29] = tested on: NCI-H460 lung
[30] = tested on: NCI/ADR-RES ovarian
[31] = tested on: OVCAR-4 ovarian
[32] = tested on: OVCAR-8 ovarian
[33] = tested on: PC-3 prostate
[34] = tested on: RPMI-8226 leukemia
[35] = tested on: RXF 393 renal
[36] = tested on: SF-268 CNS
[37] = tested on: SF-295 CNS
[38] = tested on: SF-539 CNS
[39] = tested on: SK-MEL-2 melanoma
[40] = tested on: SK-MEL-28 melanoma
[41] = tested on: SK-MEL-5 melanoma
[42] = tested on: SK-OV-3 ovarian
[43] = tested on: SNB-19 CNS
[44] = tested on: SNB-75 CNS
[45] = tested on: SR leukemia
[46] = tested on: SW-620 colon
[47] = tested on: T-47D breast
[48] = tested on: TK-10 renal
[49] = tested on: U251 CNS
[50] = tested on: UACC-257 melanoma
[51] = tested on: UACC-62 melanoma
[52] = tested on: UO-31 renal

Measured: TGI

CCNC(=S)Nc1c(C#N)c2n(c1C(=O)OCC)CCCCC2
> 100 µM: all assays above
